# Assay results as given in US8193237B2, “Indole derivative having IκB kinase β inhibitory activity” (Santen Pharmaceutical Co., Ltd., priority 2007, dated 2012).
# Target: T1, IKKβ (Homo sapiens, UniProt O14920)
# T1 construct: purchased Upstate Biotechnology Inc. 14-485
# T1 sequence (O14920 1-756): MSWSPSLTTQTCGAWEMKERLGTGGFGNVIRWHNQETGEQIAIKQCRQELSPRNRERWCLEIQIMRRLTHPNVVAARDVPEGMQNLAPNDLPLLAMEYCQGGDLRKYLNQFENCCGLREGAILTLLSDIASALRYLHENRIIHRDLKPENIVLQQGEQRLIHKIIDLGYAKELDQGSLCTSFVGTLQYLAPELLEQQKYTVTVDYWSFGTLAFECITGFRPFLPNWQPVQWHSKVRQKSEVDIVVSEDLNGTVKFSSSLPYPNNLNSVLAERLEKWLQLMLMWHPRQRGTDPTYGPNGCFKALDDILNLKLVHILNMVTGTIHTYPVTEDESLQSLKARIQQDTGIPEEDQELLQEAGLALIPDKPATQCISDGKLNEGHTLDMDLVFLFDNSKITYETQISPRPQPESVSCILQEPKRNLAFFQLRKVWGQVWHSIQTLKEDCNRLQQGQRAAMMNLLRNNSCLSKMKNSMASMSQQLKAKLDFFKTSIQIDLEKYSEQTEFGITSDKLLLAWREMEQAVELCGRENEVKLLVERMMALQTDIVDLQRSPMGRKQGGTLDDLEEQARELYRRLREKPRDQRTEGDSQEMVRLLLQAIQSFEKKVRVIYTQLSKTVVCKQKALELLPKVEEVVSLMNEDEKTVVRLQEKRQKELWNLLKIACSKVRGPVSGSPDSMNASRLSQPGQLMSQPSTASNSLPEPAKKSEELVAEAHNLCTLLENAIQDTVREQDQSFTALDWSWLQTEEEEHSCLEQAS
# Experiment: IKKβ inhibition assay by fluorescence polarization (IMAP kit)
# Assay type: biochemical
# Conditions: test compound at 1 μM; inhibition rate exceeding 100% is indicated as 100%
# Procedure: In order to evaluate IKKβ inhibitory activity of the present compounds, an IKKβ inhibition assay by the fluorescence polarization method was conducted.
# The assay was conducted using IMAP™ IKKβ assay kit (manufactured by Molecular Devices Corporation, catalogue No. R8115) or IMAP™ FP Screening Express kit (manufactured by Molecular Devices Corporation, catalogue No. R8127) and in accordance with the protocol attached to each kit. The specific methods are described below. (Preparation of Reagents)
# 1) Complete Reaction Buffer: a complete reaction buffer was so prepared as to obtain a final concentration of 10 mM Tris-HCL (pH 7.2), 10 mM magnesium chloride, 0.1% bovine serum albumin, and 1 mM dithiothreitol.
# 2) Substrate Working Solution: 400 nM of a substrate working solution was prepared by dissolving and diluting a fluorescein-labeled IKKβ substrate peptide (amino acid sequence: GRHDSGLDSMK) with the complete reaction buffer.
# 3) Enzyme Working Solution: 0.2 units/mL of an enzyme working solution was prepared by diluting IKKβ solution (manufactured by Upstate Biotechnology Inc., catalogue No. 14-485) with the complete reaction buffer.
# 4) ATP Working Solution: 8 μM of an ATP working solution was prepared by dissolving ATP into ultrapure water followed by diluting it with the complete reaction buffer.
# 5) IMAP binding solution: After diluting an IMAP binding buffer with ultrapure water, an IMAP binding solution was prepared by diluting an IMAP binding reagent with the diluted IMAP binding buffer.
# A test compound was dissolved in dimethylsulfoxide followed by diluting it with the complete reaction buffer to prepare 4 μM of a test compound solution.
# 1) To a 384-well plate, the test compound solution, the enzyme working solution, the substrate working solution, and the ATP working solution were added in an amount of 5 μL per well.
# 2) Incubation was performed at a room temperature for 60 minutes under light shielding.
# 3) The IMAP binding solution was added in an amount of 60 μL per well.
# 4) Incubation was performed at a room temperature for 30 minutes under light shielding.
# 5) Fluorescence polarization value of each well was measured by using Analyst™ HT (multimode plate reader manufactured by Molecular Devices Corporation) and Criterion Host Software v2.00 (manufactured by Molecular Devices Corporation).
# 6) Operations were performed in the same manner as in 1) to 5) except for changing the test compound to 0.4% dimethylsulfoxide. The obtained result was designated as a control.
# 7) Operations were performed in the same manner as in 1) to 5) except for changing the test compound and the enzyme working solution to 0.4% dimethylsulfoxide and the complete reaction buffer, respectively. The obtained result was designated as a background.
# An IKKβ inhibition rate (%) was calculated by the following equation.
# IKKβ inhibition rate (%)=100×{1−(fluorescence polarization value of test compound−fluorescence polarization value of background)/(fluorescence polarization value of control−fluorescence polarization value of background)}
row,SMILES,inhibition at 1 µM [%]
1,"NC(=O)Nc1[nH]c2cc(-c3ccc(CNC4CC4)o3)ccc2c1C(N)=O [Compound 13-15, 2-Aminocarbonylamino-6-(5-cyclopropylaminomethylfuran-2-yl)indole-3-carboxamide]",100
2,NC(=O)Nc1[nH]c2cc(CN3CCCC3)ccc2c1C(N)=O [Compound 24-2],100
3,COc1cc(-c2ccc3c(C(N)=O)c(NC(N)=O)[nH]c3c2)ccc1CO [Compound 7-14],100
4,CC(C)(N)c1ccc(-c2ccc3c(C(N)=O)c(NC(N)=O)[nH]c3c2)cc1 [Compound 8-6],99
5,"NC(=O)Nc1[nH]c2cc(-c3ccccc3F)ccc2c1C(N)=O [Compound 4-10, 2-Aminocarbonylamino-6-(2-fluorophenyl)indole-3-carboxamide]",100
6,NCc1ccc(-c2ccc3c(C(N)=O)c(NC(N)=O)[nH]c3c2)cc1 [Compound 8-3],100
7,"CCc1ccc2c(C(N)=O)c(NC(N)=O)[nH]c2c1 [Compound 11-1, 2-Aminocarbonylamino-6-ethylindole-3-carboxamide]",95
8,"NC(=O)Nc1[nH]c2cc(-c3ccc(CO)o3)ccc2c1C(N)=O [Compound 12-2, 2-Aminocarbonylamino-6-(5-hydroxymethylfuran-2-yl) indole-3-carboxamide]",99
9,"CNCc1ccc(-c2ccc3c(C(N)=O)c(NC(N)=O)[nH]c3c2)s1 [Compound 13-24, 2-Aminocarbonylamino-6-(5-methylaminomethylthiophen-2-yl)indole-3-carboxamide]",98
10,NC(=O)Nc1[nH]c2cc(-c3ccncc3)ccc2c1C(N)=O [Compound 7-9],98
11,"NC(=O)Nc1[nH]c2cc(C3SCCS3)ccc2c1C(N)=O [Compound 20-1, 2-Aminocarbonylamino-6-(1,3-dithiolan-2-yl)indole-3-carboxamide]",100
12,"NC(=O)Nc1[nH]c2cc(-c3cccc(F)c3)ccc2c1C(N)=O [Compound 4-11, 2-Aminocarbonylamino-6-(3-fluorophenyl)indole-3-carboxamide]",100
13,"NC(=O)Nc1[nH]c2cc(-c3cccc([N+](=O)[O-])c3)ccc2c1C(N)=O [Compound 4-16, 2-Aminocarbonylamino-6-(3-nitrophenyl)indole-3-carboxamide]",100
14,"C=Cc1ccc2c(C(N)=O)c(NC(N)=O)[nH]c2c1 [Compound 4-38, 2-Aminocarbonylamino-6-vinylindole-3-carboxamide]",100
15,"COC(=O)c1ccc2c(C(N)=O)c(NC(N)=O)[nH]c2c1 [Compound 2-17, 2-aminocarbonylamino-6-methoxycarbonylindole-3-carboxamide]",100
16,"NC(=O)Nc1[nH]c2cc(C(F)(F)F)ccc2c1C(N)=O [Compound 2-16, 2-Aminocarbonylamino-6-trifluoromethylindole-3-carboximide]",95
17,C[C@@H](O)c1cccc(-c2ccc3c(C(N)=O)c(NC(N)=O)[nH]c3c2)c1 [Compound 7-44],100
18,"NC(=O)Nc1[nH]c2cc(-c3cccc(CNCCO)c3)ccc2c1C(N)=O [Compound 13-13, 2-Aminocarbonylamino-6-[3-(2-hydroxyethylaminomethyl)phenyl]indole-3-carboxamide]",100
19,"CS(=O)(=O)Nc1cccc(-c2ccc3c(C(N)=O)c(NC(N)=O)[nH]c3c2)c1 [Compound 4-17, 2-Aminocarbonylamino-6-(3-methylsulfonylaminophenyl)indole-3-carboxamide]",100
20,"CN(C)c1ccc(-c2ccc3c(C(N)=O)c(NC(N)=O)[nH]c3c2)cc1 [Compound 4-78, 2-Aminocarbonylamino-6-(4-dimethylaminophenyl)indole-3-carboxamide]",95
21,"Cc1c(Br)ccc2c(C(N)=O)c(NC(N)=O)[nH]c12 [Compound 2-11, 2-Aminocarbonylamino-6-bromo-7-methylindole-3-carboxamide]",96
22,"NC(=O)Nc1[nH]c2cc(-c3ccco3)ccc2c1C(N)=O [Compound 4-19, 2-Aminocarbonylamino-6-(furan-2-yl)indole-3-carboxamide]",100
23,"NC(=O)Nc1[nH]c2cc(N3CCCC3)ccc2c1C(N)=O [Compound 2-5, 2-Aminocarbonylamino-6-(pyrrolidin-1-yl)indole-3-carboxamide]",86
24,"NC(=O)Nc1[nH]c2ccccc2c1C(N)=O [Compound 2-10, 2-Aminocarbonylaminoindole-3-carboxamide]",75
25,CCSCc1ccc2c(C(N)=O)c(NC(N)=O)[nH]c2c1 [Compound 25-3],100
26,"CN(C)CC#Cc1ccc2c(C(N)=O)c(NC(N)=O)[nH]c2c1 [Compound 9-18, 2-Aminocarbonylamino-6-(3-dimethylamino-1-propynyl) indole-3-carboxamide]",94
27,"NC(=O)Nc1[nH]c2cc(CCCCO)ccc2c1C(N)=O [Compound 11-6, 2-Aminocarbonylamino-6-(4-hydroxybutyl)indole-3-carboxamide]",98
28,"COC/C=C/c1ccc2c(C(N)=O)c(NC(N)=O)[nH]c2c1 [Compound 4-58, 2-Aminocarbonylamino-6-[(E)-3-methoxy-1-propenyl]indole-3-carboxamide]",99
